Entries after “also recorded” stand apart in the source; their conditions may differ. Where a SMILES comes first, the peptide text is derived from it. [ ]: non-standard residue; d: D form. Nle = CCCC[C@H](N)C(=O)O
Assays:
Type in all cases: cell-based, human
[1] = tested on: occludin cleavage by calpain (45 kDa occludin cleavage product); test: Occludin cleavage: immunoprecipitation and immunoblot in 1HAEo- cells; details: 6 μM BAPTA/AM, 20 μM ALLN, 20 μM GM6001, 25 μM Z-DEVD-FMK
Experimental: (§1) 1HAEo-cells or SAECs were grown to confluence on 10 cm plates, stimulated with heat killed PAO1 (10^7 CFU) or P3C (15 μg/ml), and whole cell lysates made using 60 mM n-octyl-β-D-glucopyranoside (OGP) in TBS (0.1 M Tris-HCl and 0.15 M NaCl, pH 7.8) containing Complete Mini protease inhibitor tablets (Roche), 1 mM sodium orthovanadate and 100 mM sodium fluoride. Monoclonal anti-E-cadherin (BD Pharmingen), polyclonal anti-pan calpain (Santa Cruz Biotechnologies) or monoclonal anti-occludin (Invitrogen/Zymed) antibodies were used for immunoprecipitations followed by the addition of Protein G Agarose beads (Invitrogen) (Chun and Prince, 2006). Immunodetection was performed using monoclonal anti-E-cadherin, polyclonal anti-occludin, anti-pan calpain, anti-calpain 1 and anti-calpain 2 antibodies (Santa Cruz Biotechnology).
1HAEo-cells were transiently transfected with scrambled (control) or calpain 1 and 2 siRNA Smart pool oligos (Dharmacon) (FIGS. 11 and 12). Transfection was carried out using an Amaxa Nucleofector following manufacturer's instructions. Briefly, 10^6 1HAEo-cells were electroporated in 100 μl Buffer L with 1.5 μg of scrambled or siRNA oligo and transferred into pre-warmed 6 well tissue culture dishes. Cells were incubated at 37° C., 5% CO2 for 48 hours before performing experiments.

[2] = tested on: E-cadherin cleavage by calpain (100 kDa E-cadherin cleavage product); test: E-cadherin cleavage: immunoblot in 1HAEo- cells; details: airway cells, 4 hr stimulation
Experimental: as §1

[3] = tested on: epithelial cell junctions of polarized 16HBE cells; test: Biotin labeling and confocal microscopy of polarized 16HBE monolayers; details: 4 h incubation
Experimental: (§2) 16HBE cells were grown on 3 μm pore size Transwell-Clear filters (Corning-Costar) with an air-liquid interface to form polarized monolayers. For confocal imaging, cells were fixed with 4% paraformaldehyde, blocked with 5% normal donkey serum and incubated at 4° C. overnight with the polyclonal pan-calpain (Santa Cruz Biotechnology), monoclonal occludin (Invitrogen/Zymed) and/or monoclonal E-cadherin (BD Pharmingen) antibodies. Alexa Fluor 594 conjugated and Alexa Fluor 488 conjugated secondary antibodies (Invitrogen/Molecular Probes) were added at room temperature for 1 h. After washing, filters were removed from Transwells using a scalpel, mounted with Vectashield with DAPI (Vector Laboratories) onto glass slides and imaged using a Zeiss LSM 510 Meta scanning confocal microscope. For biotin labeling experiments 1 mg/ml EZ-Link Sulfo-NHS-LC-Biotin was added apically for 30 min at 4° C. before fixing the cells. Alexa Fluor 555 conjugated streptavidin (Molecular Probes) was added for detection of biotin.

[4] = tested on: occludin, E-cadherin and calpain localization in 16HBE cells; test: Confocal imaging of junctional proteins and calpain in polarized 16HBE cells; details: 1 hr stimulation
Experimental: as §2

| Structure (SMILES) | Generation of occludin cleavage product in presence of inhibitor [1] | 100 kDa E-cadherin cleavage product after stimulation [2] | Penetration of biotin between cells of polarized monolayer [3] | Co-localization of calpain and E-cadherin [4] |
| --- | --- | --- | --- | --- |
| CNC(=O)[C@H](Cc1c[nH]c2ccccc12)NC(=O)[C@@H](CC(=O)NO)CC(C)C [GM6001] | neither the general matrix metalloproteinase inhibitor GM6001 nor the caspase inhibitor Z-DEVD-FMK blocked |  |  |  |
| COC(=O)CC[C@H](NC(=O)[C@H](CC(=O)OC)NC(=O)OCc1ccccc1)C(=O)N[C@H](C(=O)N[C@@H](CC(=O)OC)C(=O)CF)C(C)C [Z-DEVD-FMK] | neither the general matrix metalloproteinase inhibitor GM6001 nor the caspase inhibitor Z-DEVD-FMK blocked |  |  |  |
| C/C=C(/C)C(=O)O[C@H]1C(C)=C2[C@H]([C@@H]1OC(=O)CCCCCCC)[C@@](C)(OC(C)=O)C[C@H](OC(=O)CCC)[C@@]1(O)[C@H]2OC(=O)[C@@]1(C)O [thapsigargin] |  | generation of a 100 kDa E-cadherin cleavage product | resulted in the penetration of biotin; also recorded: increase in accessibility of the junctions to biotin | increased; also recorded: induced mobilization and co-localization of calpain with E-cadherin |
| CCCC[C@@H](C=O)NC(=O)[C@H](CC(C)C)NC(=O)[C@H](CC(C)C)NC(C)=O [ALLN, N-acetyl-leucyl-leucyl-norleucinal] (Ac-Leu-Leu-[Nle]-aldehyde) | blocked generation of the occludin cleavage product |  |  |  |

— US20110117106A1, “USES OF CALPAIN INHIBITORS TO INHIBIT INFLAMMATION” (priority 2008, published 2011)
